Data set [1] deals with Leishmania amazonensis promastigote. Description: Activity against promastigote forms (MTT). The format is cell-based. Particulars: for IC50: read-out: IC50 Promastigote. As to the method: Leishmania amazonensis (MHOM/BR/76/MA-76) promastigote forms of were cultured at 26 °C in Schneider’s Insect medium added with 10% fetal bovine sera (FBS), 100 U/mL of penicillin and 100 µg/mL of streptomycin. Parasite cultures with a maximum of seven in vitro passages were used. […] Blanks composed by wells without parasites and wells with parasites plus DMSO 1% only were used as controls. A modified colorimetric method with tetrazolium-dye MTT was used to evaluate parasite viability. A quantity of 10 µL of MTT (5 mg/mL) was added to each well. After five hours, 150 µL of DMSO was added to each well to dissolve the formazan crystals. Absorbance was read on a spectrophotometer at a wavelength of 570 nm. The data was normalized and the results were used to calculate the IC50 (50% inhibition of parasite growth). Miltefosine was used as a reference drug.

A further data set is described as follows: Cytotoxicity assay (MTT). Particulars: mouse. The format is cell-based, BALB/c mice. How it is done:
The peritoneal macrophages were obtained from BALB/c mice elicited with 3 mL Brewer thioglycollate medium for 72 h, intraperitoneal. After euthanasia, cells were obtained by peritoneal washing with PBS, centrifuged at 4000 rpm for 5 min, and suspended in RPMI 1640 medium plus 10% FBS, 100 U/mL of penicillin and 100 µg/mL of streptomycin [50]. The cells were immediately used in experiments and maintained at 37 °C and 5% CO2.
Blanks were composed by wells without cells and wells with cells plus 1% of DMSO only. Cell viability was carried out by the modified MTT colorimetric method as described before. Tem microliters of MTT at 5 mg/mL was added to each well and incubated for two hours at 37 °C and 5% CO2. The plate was then centrifuged for five minutes at 1500 rpm, the supernatants were removed and the formazan crystals solubilized with 100 μL of DMSO in a shaker-plate for 10 min. The absorbance was determined in a spectrophotometer at a wavelength of 570 nm.

Data set [2] has as its system Leishmania amazonensis intracellular amastigotes. Briefly: Activity against intracellular amastigote in infected peritoneal macrophages, and selectivity index. The format is cell-based. The conditions noted are these: for amastigotes per infected cell / number of amastigotes per 200 cells / parameters of infection (amastigotes per 200 cells, percentage of infected cells, amastigotes per infected cell): compared with untreated infected cells; for IC50: Leishmania amazonensis, Peritoneal macrophage, in Mus musculus, read-out: IC50 Intracellular Amastigote; for SI (selectivity index): ratio of CC50 versus the IC50 for intracellular amastigotes. How it is done: Activity against the intracellular amastigotes was carried out in 24-well plates with coverslips with peritoneal macrophages (5 × 10^5 cells/well). Cells were infected with L. amazonensis promastigote forms using a ratio of 10:1 parasite/cell. After 6 h after infection the cells were washed three times with PBS to remove non-internalized parasites. […] The infected and treated cells adhered to the coverslips were fixed with Bouin, stained with Giemsa’s azur-eosin-methylene blue and examined by light microscopy. […] The percentage of infected cells was determined by number of infected cells divided by two. […] The selectivity index was calculated from the ratio of CC50 versus the IC50 for intracellular amastigotes.

Data set [3] concerns Leishmania amazonensis promastigotes. Briefly: Transmission electron microscopy of treated promastigotes. It is filed as cell-based. The conditions noted are these: 24 h of treatment at IC50. How it is done: The parasites were fixed with 2.5% glutaraldehyde in a 0.1 M sodium-cacodylate buffer, pH 7.2 overnight. Then, parasites were washed three times with 0.1 M sodium-cacodylate buffer, post-fixed in a solution composed by 1% osmium tetroxide, 0.8% potassium ferrocyanide, and 5 mM calcium chloride, dehydrated in graded acetone and embedded in EPON 812.

Data set [4] has as its system BALB/c peritoneal macrophages. Briefly: Nitrite quantification (Griess) in supernatant of macrophages stimulated with L. amazonensis. The format is cell-based, BALB/c mice. The conditions noted are these: compound at 18.7 μM, 48 h. How it is done:
BALB/c peritoneal macrophages at 5 × 10^6 cells/mL were stimulated with L. amazonensis promastigotes (10:1 parasites:cell) for one hour, and treated with different concentrations of triazole compounds for 48 h. Nitrite quantification of the supernatant of the cells was performed with Griess reagent. […] The nitrite concentrations were obtained from the standard curve of sodium nitrite (100 to 0.3 μM).

Setting [5] is: L. amazonensis promastigotes, 24 h of treatment per table title, MTT.
[6] abbreviates: Leishmania amazonensis, 24 h, L. amazonensis promastigotes, 24 h of treatment per table title, MTT.
[7] abbreviates: BALB/c peritoneal macrophages, 24 h of treatment, MTT, read-out: CC50.
[8] abbreviates: L. amazonensis in BALB/c peritoneal macrophages, 24 h of treatment.

Like-named read-outs stand apart in the source and are kept apart here.

For the compound `O=Cc1ccccc1-n1cc(COc2ccccc2)nn1` [Compound 1], the IC50 in data set [1] (setting [5]) was 53.7 ± 8.47 µM; in data set [1] (setting [6]), more than 50 µM. In addition, the CC50 at 24 h in the data set “Cytotoxicity assay (MTT)” (setting [7]) was 221 ± 4.82 µM.
`O=Cc1ccccc1-n1cc(COc2cccc(OCc3cn(-c4ccccc4C=O)nn3)c2)nn1` [Compound 2]: the 50% inhibitory concentration (IC50) is 8.85 ± 3.44 µM in data set [1] (setting [5]), less than 10 µM in data set [1] (setting [6]) and 37.9 ± 3.35 µM in data set [2] (setting [8]). Further, the “amastigotes per infected cell” value in data set [2] (37.5 μM, 24 h) is on record as “decreased”. For the same compound, the “number of amastigotes per 200 cells” value in data set [2] (37.5 μM, 24 h) was “decreased”. Also, the “SI (selectivity index)” value in data set [2] was determined as 6.55. Besides, in “Cytotoxicity assay (MTT)” (setting [7]), the CC50 at 24 h turned out to be 248 ± 2.52 µM. For the same compound, in data set [3], the “ultrastructural alterations in promastigotes” value (shortened to “ultrastructural alterations”) is recorded as “increase in lipid corpuscles (white arrows), electron dense vesicles inside small vacuoles in the cytoplasm”.
As to `O=Cc1ccccc1-n1cc(COc2cccc(O)c2)nn1` [Compound 3], the results for the concentration for half-maximal inhibition (IC50) in data set [1] (setting [5]) and in data set [1] (setting [6]) were 50.9 ± 4.57 µM and more than 50 µM, respectively. In addition, the CC50 at 24 h in the data set “Cytotoxicity assay (MTT)” (setting [7]) is 308 ± 4.07 µM.
On to `C#CCOc1cccc(OCc2cn(-c3ccccc3C=O)nn2)c1` [Compound 4], for which the IC50 in data set [1] (setting [5]) turned out to be 15.7 ± 5.42 µM. Besides, the half-inhibitory concentration (IC50) in data set [1] (setting [6]) was approximately 15 µM. For the same compound, in data set [2], the “increase in IC50 value against intracellular amastigote compared to promastigote forms” value was determined as 9.5 fold and the “SI (selectivity index)” value was determined as 0.96. In addition, in data set [2] (37.5 μM, 24 h), the “number of amastigotes per 200 cells” value is “statistically decreased” and the “parameters of infection (amastigotes per 200 cells, percentage of infected cells, amastigotes per infected cell)” value is reported as “did not significantly alter the other parameters of infection”. Also, the concentration for half-maximal inhibition (IC50) in data set [2] (setting [8]) was 150 ± 6.37 µM. Also, the cytotoxic concentration (CC50) at 24 h in the data set “Cytotoxicity assay (MTT)” (setting [7]) was 145 ± 4.1 µM. In addition, the “ultrastructural alterations” value in data set [3] is “swelling of the kinetoplast and a change in chromatin distribution”.
Consider `Cc1ccc(S(=O)(=O)N/N=C/c2ccccc2-n2cc(COc3ccccc3)nn2)cc1` [Compound 5], for which the half-inhibitory concentration (IC50) was 8.81 ± 3.93 µM in data set [1] (setting [5]), less than 10 µM in data set [1] (setting [6]) and 32.3 ± 2.26 µM in data set [2] (setting [8]). In addition, the “parameters of infection (amastigotes per 200 cells, percentage of infected cells, amastigotes per infected cell)” value in data set [2] (37.5 μM, 24 h) is “reduced all the three parameters of infection”. The “SI (selectivity index)” value in data set [2] amounted to 1.79. The cytotoxic concentration (CC50) at 24 h in the data set “Cytotoxicity assay (MTT)” (setting [7]) came to 58 ± 2.65 µM. Moreover, the “ultrastructural alterations” value in data set [3] is recorded as “lipid corpuscles (white arrows) (Figure 6A), extension of the kinetoplast containing granular material”.
Regarding `C(=N\Nc1ccccc1)/c1ccccc1-n1cc(COc2ccccc2)nn1` [Compound 6], the IC50 in data set [1] (setting [5]) is 14.6 ± 4.39 µM; in data set [1] (setting [6]) it was approximately 15 µM; in data set [2] (setting [8]) it was 17.8 ± 3.26 µM. For the same compound, the “amastigotes per infected cell” value in data set [2] (18.7 μM, 24 h) is listed as “still able to reduce”. For the same compound, the “number of amastigotes per 200 cells” value in data set [2] (18.7 μM, 24 h) is on record as “still able to reduce”; in data set [2] (37.5 μM, 24 h) it was “remarkable reduction”. In addition, in data set [2] (37.5 μM, 24 h), the “parameters of infection (amastigotes per 200 cells, percentage of infected cells, amastigotes per infected cell)” value is “altered all the three parameters of infection”. In addition, in data set [2], the “SI (selectivity index)” value stood at 30.81. Besides, in the data set “Cytotoxicity assay (MTT)” (setting [7]), the CC50 at 24 h was found to be 547.9 ± 3.26 µM. Besides, in data set [3], the “ultrastructural alterations” value is on record as “lipid corpuscles (white arrows) (Figure 7A), large vacuoles containing electron-dense material”. Moreover, the “nitrite level relative to untreated infected macrophages” value in data set [4] came out at 2.3 fold.
Take `O=Cc1ccccc1-n1cc(-c2ccccc2)nn1` [Compound 7]: the 50% inhibitory concentration (IC50) in data set [1] (setting [5]) was 63 ± 5.88 µM; in data set [1] (setting [6]), more than 50 µM. Also, the cytotoxic concentration (CC50) at 24 h in “Cytotoxicity assay (MTT)” (setting [7]) was 412 ± 4.92 µM.
On to `OCc1ccccc1-n1cc(COc2ccccc2)nn1` [Compound 8], for which, in data set [1] (setting [5]), the “IC50 Promastigote” value is listed as “did not exhibit any such activity even at the maximum analyzed concentration”. Also, in data set [1] (setting [6]), the IC50 is more than 300 µM. Further, the cytotoxic concentration (CC50) at 24 h in “Cytotoxicity assay (MTT)” (setting [7]) was more than 600 µM.
Take `O=c1ccc2cc(-n3cc(COc4ccccc4)nn3)ccc2o1` [Compound 10]: in data set [1] (setting [5]), the “IC50 Promastigote” value is “did not exhibit any such activity even at the maximum analyzed concentration”. Also, in data set [1] (setting [6]), the half-inhibitory concentration (IC50) is more than 300 µM. Moreover, the CC50 at 24 h in “Cytotoxicity assay (MTT)” (setting [7]) was more than 600 µM.
In the case of `CCCCCCCCCCCCCCCCOP(=O)([O-])OCC[N+](C)(C)C` [Miltefosine, miltefosine, reference compound], the concentration for half-maximal inhibition (IC50) was 8.56 ± 0.695 µM in data set [1] (Leishmania amazonensis, 24 h) and 11.6 ± 1.79 µM in data set [2] (24 h). The “parameters of infection (amastigotes per 200 cells, percentage of infected cells, amastigotes per infected cell)” value in data set [2] (25 and 12.5 μM, 24 h) was “reduction of all three parameters of infection”. The same compound displayed a half-maximal cytotoxic concentration (CC50) at 24 h in the data set “Cytotoxicity assay (MTT)” (BALB/c) of 153 ± 3.85 µM.

For orientation: IC50 means the concentration needed to halve the response being measured. What is called CC50 is the concentration that lowers cell viability or growth by half.

The values above are taken from PMC7555349, “1,4-Disubstituted-1,2,3-Triazole Compounds Induce Ultrastructural Alterations in Leishmania amazonensis Promastigote: An in Vitro Antileishmanial and in Silico Pharmacokinetic Study” (International Journal of Molecular Sciences, 2020).
